This is an account of results in patent US20080255186A1, “Pyrazolo[3,4-B]Pyridine Compound, and Its Use as a Pde4 Inhibitor” (priority 2005, published 2008).

Read-outs that look alike come from different tables or passages of the source.

For assay [1], the system named is TNF-α (TNF-alpha) production in Human Whole Blood. Nature of the assay: Inhibition of TNF-alpha production in Human Whole Blood (IGEN assay). The format is cell-based. On the procedure: This is an optional supplementary test, e.g. for potentially orally-administrable PDE4 inhibitors. Also, as the assay may measure the effect of PDE4 inhibitors after loss by protein binding, it might possibly also be relevant to externally-topically-administrable PDE4 inhibitors as protein-binding-loss of compound is possible during transport through the skin.
Test compounds are prepared as a ca. 10 mM stock solution in DMSO and a dilution series prepared in DMSO with 8 successive 3-fold dilutions, either directly from the 10 mM stock solution or from a more dilute solution in DMSO. The compound is added to assay plates using a Biomek Fx liquid handling robot.
Heparinised blood drawn from normal volunteers is dispensed (ca. 100 μl=ca. 100 ul) into microtitre plate wells containing ca. 0.5 or ca. 1.0 μl (ul, microlitres) of an appropriately diluted test compound solution. […] Plasma TNFα content is determined by electrochemiluminescence assay using the MSD technology (see below), the IGEN technology (see below) or by enzyme linked immunosorbant assay (ELISA) (see below).
Ca. […] 50 μl (ul) of streptavidin/biotinylated anti-TNF-α antibody mix, ca. 25 μl ruthenium tagged anti-TNF-α monoclonal and ca. 100 μl PBS containing 0.1% bovine serum albumin are added to each well and the plates are sealed and shaken for ca. 2 hours before being read on an IGEN instrument.

Assay [2] deals with T1, PDE4B (human recombinant) (Homo sapiens, UniProt Q07343).
T1 construct: made in house; host or cells: Saccharomyces cerevisiae strain GL62 (PDE-deficient yeast)
Nature of the assay: PDE4B inhibition, IMAP Fluorescence Polarisation (FP) assay. It counts as biochemical. To be noted: mean of n = 3 readings; accurate to about ±0.5 log unit; read-out: PDE4B pIC50 (± about 0.5) (FP assay), Mean pIC50 value (converted). From the text: Human recombinant PDE4B, in particular the 2B splice variant thereof (HSPDE4B2B), is disclosed in WO 94/20079 and also M. M. McLaughlin et al., “A low Km, rolipram-sensitive, cAMP-specific phosphodiesterase from human brain: cloning and expression of cDNA, biochemical characterisation of recombinant protein, and tissue distribution of mRNA”, J. Biol. Chem., 1993, 268, 6470-6476. For example, in Example 1 of WO 94/20079, human recombinant PDE4B is described as being expressed in the PDE-deficient yeast Saccharomyces cerevisiae strain GL62, e.g. after induction by addition of 150 uM CuSO4, and 100,000×g supernatant fractions of yeast cell lysates are described for use in the harvesting of PDE4B enzyme.
The ability of compounds to inhibit catalytic activity at PDE4B (human recombinant) or PDE4D (human recombinant) can optionally be determined by IMAP Fluorescence Polarisation (FP) assay (IMAP Explorer kit, available from Molecular Devices Corporation, Sunnydale, Calif., USA; Molecular Devices code: R8062) in 384-well format.
The IMAP FP assay is able to measure PDE activity in an homogenous, non-radioactive assay format. […] Binding of Fl-AMP product to the beads (coated with the immobilised trivalent cations) slows the rotation of the bound Fl-AMP and leads to an increase in the fluorescence polarisation ratio of parallel to perpendicular light. […]
For orientation: Polarisation of emitted light reports the rotation of a fluorescent probe.

T1 sequence (Q07343 1-564 isoform Q07343-2): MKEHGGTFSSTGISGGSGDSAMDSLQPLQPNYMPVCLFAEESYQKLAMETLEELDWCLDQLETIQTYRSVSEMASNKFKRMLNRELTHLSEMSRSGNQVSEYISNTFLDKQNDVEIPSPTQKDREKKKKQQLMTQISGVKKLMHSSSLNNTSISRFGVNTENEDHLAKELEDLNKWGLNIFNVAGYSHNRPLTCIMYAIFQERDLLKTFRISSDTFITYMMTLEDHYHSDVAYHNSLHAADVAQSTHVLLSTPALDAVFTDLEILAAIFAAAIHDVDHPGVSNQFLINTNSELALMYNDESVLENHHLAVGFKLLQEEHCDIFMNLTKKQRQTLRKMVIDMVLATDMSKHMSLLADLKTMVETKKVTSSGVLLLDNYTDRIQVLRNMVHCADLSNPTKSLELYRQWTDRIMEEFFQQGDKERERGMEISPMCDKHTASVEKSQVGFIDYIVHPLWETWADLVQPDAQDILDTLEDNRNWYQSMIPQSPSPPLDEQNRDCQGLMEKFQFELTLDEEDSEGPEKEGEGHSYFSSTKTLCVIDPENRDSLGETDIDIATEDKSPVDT

For `CCc1nc2c(cnn2CC)c(NC2CCOCC2)c1CNC(=O)c1cc(C)no1` [Example 1, N-{[1,6-diethyl-4-(tetrahydro-2H-pyran-4-ylamino)-1H-pyrazolo[3,4-b]pyridin-5-yl]methyl}-3-methyl-5-isoxazolecarboxamide], the IC50 in assay [1] (n = about 4, LPS-stimulated, read-out: Whole Blood, Mean pIC50 (IGEN assay) (converted)) was around 2 nM; in assay [1] (range of individual measurements, read-out: Whole Blood individual pIC50 test values, range (IGEN assay) (converted)), 1.26 to 2.63 nM; in assay [2], around 0.158 nM.
